# Measurements: ChEMBL document CHEMBL1135058, “New anti-malarial compounds from database searching” (Bioorg Med Chem Lett, 2002)
# Tested on: Plasmodium falciparum
# Test: In vitro inhibition as IC50 against Plasmodium falciparum by [3H]hypoxanthine uptake
# Format: functional, organism-based
# Conditions: not given; call rule not given here
row,SMILES,IC50 [µg/mL]
1,CCN(CC)CCCC(C)Nc1ccnc2cc(Cl)ccc12.O=P(O)(O)O.O=P(O)(O)O (centres undefined) [CHLOROQUINE PHOSPHATE],0.16

# Same assay, conditions: Plasmodium falciparum; read-out: IC50
row,SMILES,IC50 [µM]
1,COc1ccc(C2OCC3(O)C(c4ccc(OC)c(OC)c4)OCC23)cc1OC (centres undefined),3.2
2,O=C1C=CC(=C(c2ccc(O)cc2)c2c(Cl)c(Cl)c(Cl)c(Cl)c2C(=O)O)C=C1,20
3,COc1cccc(CN2CCCN(Cc3cccc(OC)c3O)C2c2ccc(N(CCCl)CCCl)cc2C)c1O,1.2
4,COc1ccccc1/C=C/C(=O)O [COUMARINIC ACID METHYL ETHER],3

# Further lines, results first:
row,IC50 [µM],SMILES
1,> 2,COc1cc(C(c2c(O)oc3ccccc3c2=O)c2c(O)oc3ccccc3c2=O)cc(OC)c1OC
2,6.2,COc1ccc(CC(=O)c2c(O)c3c(c(CC=C(C)C)c2OC)OC(C)(C)CC3)cc1
3,20,COc1ccc(/C(=N\O)c2nccc3cc(OC)c(OC)cc23)cc1OC
4,20,COc1cc(C(=O)C(O)c2cc(OC)c(OC)c(OC)c2)cc(OC)c1OC (centres undefined)
5,4.6,COc1cccc(C(O)C2=CC(=O)c3ccccc3C2=O)c1OC (centres undefined)
6,4,CCN(CC)c1ccc(NCC(O)c2cc(Cl)ccc2OC)cc1 (centres undefined)
7,6.6,Cc1cc2c3c(c1-c1c(C)cc4c(C(C)C)c(O)c(O)c(C=N)c4c1O)OC1=C4C(=O)C(O)C(C(C)C)c5cc(C)c(-c6c(C)cc7c(C(C)C)c(O)c(O)c(C=O)c7c6O)c(c54)OC(=C3C(=O)C(O)C2C(C)C)N1 (centres undefined)
8,8,COc1ccc(C(O)C2c3c(cc4c(c3OC)OCO4)CCN2C)c(CO)c1OC (centres undefined)

# Tested on: Plasmodium falciparum
# Test: In vitro inhibition as IC50 against Plasmodium falciparum by [3H]hypoxanthine uptake; Not active
# Format: functional, organism-based
# Conditions: not given
row,SMILES,IC50
1,Cc1ccc(C(C)C)c(OP(=S)(S)Oc2cc(C)ccc2C(C)C)c1,Not Active
